Here are results for three compounds from patent publication US11819578B2, “Nanofiber scaffolds” (Trustees of Boston University, priority 2021, dated 2023).

What is called log P is the decadic logarithm of the partition coefficient of the neutral form, usually between octanol and water.

The nature of series [1]: Release of small molecule cargo loaded in the PCL fibers. The series is classed as physicochemical. Here is the method:
FIG. 21 depicts FITC (50-500 ng) released from the fibers over the course of 90 days. FITC was loaded in the mixture of the PCL solution similar to grazoprevir loaded meshes. (n=4)
Doxorubicin was loaded in the mixture of the PCL solution similar to grazoprevir loaded meshes. (n=3)
When used with primary CD8+ HER2-targeted NS3 CAR T cells with the same grazoprevir-dependent CARs, the […] were excited (CD69 expression) when co-cultured with the meshes and HER2-expression NALM6 cells (FIG. 19).
The meshes ability to release doxorubicin over time was characterized as a functional delivery method for chemotherapeutic drugs.

For series [2] the following is noted: cited from earlier work.

As to `O=C1OC2(c3ccc(O)cc3Oc3cc(O)ccc32)c2ccc(N=C=S)cc21` [FITC], in series [1] (FITC 50-500 ng loaded in the PCL solution, n=4), the “period of release from the fibers” value came out at 90 days. Also, in series [2], the “log P” value is 4.8.
Take `COc1cccc2c1C(=O)c1c(O)c3c(c(O)c1C2=O)C[C@@](O)(C(=O)CO)C[C@@H]3O[C@H]1C[C@H](N)[C@H](O)[C@H](C)O1` [doxorubicin]: the “period of release from the fibers” value in series [1] (500 ug doxorubicin loaded in the PCL solution, n=3) came to 28 days. In series [1] (in vitro, in words), the “release over time in vitro” value is “several weeks to months”.
For `C=C[C@@H]1C[C@]1(NC(=O)[C@@H]1C[C@@H]2CN1C(=O)[C@H](C(C)(C)C)NC(=O)O[C@@H]1C[C@H]1CCCCCc1nc3ccc(OC)cc3nc1O2)C(=O)NS(=O)(=O)C1CC1.O` [grazoprevir], the “log P” value in series [2] is 4.7.
